The values below are quoted from earlier work in patent publication US20230210793A1 (priority 2021, published 2023).

Structures are written as SMILES.

As to `O=NN(CCCl)C(=O)NCCCl` [Carmustine, 1,3-bis(2-chloroethyl)-1-nitrosourea], the solubility in water result is “poorly soluble”.
